Consider four molecules from US8198280B2, “N-hydroxyamide derivatives and use thereof” (Merck Serono SA, priority 2005, dated 2012).

In one assay the target is T1, collagenase (MMP-1) (Homo sapiens, UniProt P03956).
T1 sequence (P03956 100-469): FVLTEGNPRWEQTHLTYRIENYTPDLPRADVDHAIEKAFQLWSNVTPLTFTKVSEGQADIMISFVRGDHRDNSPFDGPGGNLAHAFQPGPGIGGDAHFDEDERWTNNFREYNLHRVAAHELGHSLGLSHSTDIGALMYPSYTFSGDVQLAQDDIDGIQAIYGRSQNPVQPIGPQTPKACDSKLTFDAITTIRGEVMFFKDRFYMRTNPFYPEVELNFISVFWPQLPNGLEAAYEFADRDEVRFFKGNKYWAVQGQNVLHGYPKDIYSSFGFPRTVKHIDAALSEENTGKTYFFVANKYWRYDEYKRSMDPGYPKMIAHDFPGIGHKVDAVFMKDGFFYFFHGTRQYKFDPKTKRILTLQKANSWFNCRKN
Kind of assay: MMP-1 enzyme inhibition assay (coumarin-labelled peptide substrate). It counts as biochemical. To be noted: fluorogenic substrate McaPLGLDpaAR, 37° C., 2 hours. The procedure: (§1) Compounds of the invention were tested for inhibitory activity against 92 kDa gelatinase (MMP-9) in an assay using a coumarin-labeled peptide substrate, (7-methoxycoumarin-4-yl)acetyl-Pro-Leu-Gly-Leu-(3-[2,4-dinitrophenyl]-L-2,3-diaminopropionyl)-Ala-Arg-NH2 (McaPLGLDpaAR) (Knight et al, 1992, FEBS Lett., 263-266).
(§2) Stock solutions were made up as follows: Assay Butter: 100 mM Tris-HCl pH 7.6 containing 100 mM NaCl, 10 mM CaCl2, and 0.05% Brij 35.
(§3) Substrate: 0.4 mM McaPLGLDpaAR (from Bachem) (0.437 mg/ml) stock solution in 100% DMSO (stored at −20° C.). Dilute to 8 μM in assay butter.
(§4) Enzyme: Recombinant human 92 kDa gelatinase (MMP-9; APMA (4-aminophenyl mercuric acetate)-activated if necessary) appropriately diluted in assay butter.
(§5) Test Compounds were prepared initially as 10 mM compound solution in 100% DMSO, diluted to 1 mM in 100% DMSO, then serially diluted 3-fold in 100% DMSO across columns 1-10 of a 96-well microtitre plate Assay concentration range, 100 μM (column 1) to 5.1 nM (column 10).
(§6) The assay was performed in a total volume of 100 μL per well in 96-well microtitre plates. Activated enzyme (20 μL) was added to the wells followed by 20 μL of assay butter. Appropriate concentrations of test compounds dissolved in 10 μL of DMSO were then added followed by 50 μL of McaPLGLDpaAR ([…], prepared by dilution of DMSO stock in assay butter). For each as say ten concentrations of test compound were examined in duplicate. Control wells lack either enzyme or test compound. The reactions were incubated at 37° C. for 2 hours. The fluorescence at 405 nm was measured immediately with an SLT Fluostar fluorometer (SLT Labinstruments GmbH, Grodig, Austria) using 320 nm excitation, without stopping the reaction.
(§7) The effect of the test compound was determined from the dose response curve generated by the 10 duplicate concentrations of inhibitor. The IC50 (the concentration of compound required to give a 50% decrease in enzyme activity) was obtained by fitting data to the equation, Y=a+((b−a)/(1+(c/X)^d)). (Y=inhibition achieved for a particular dose; X=the dose in nM; a=minimum y or zero % inhibition; b=maximum y or 100% inhibition; c=is the IC50; d=is the slope). The result was rounded to one significant figure.
Compounds of the invention were tested for inhibitory activity against collagenase (MMP-1) in an assay using a coumarin-labelled peptide substrate, (7-methoxycoumarin-4-yl)acetyl-Pro-Leu-Gly-Leu-(3-[2,4-dinitrophenyl]-L-2,3diaminopropionyl)-Ala-Arg-NH2 (Mca PLGLDpaAR) (Knight et al, 1992, above). The protocol for this assay was as described for the MMP-9 assay above.

Another assay addresses metalloelastase (MMP-12) (Homo sapiens, UniProt P39900). In words: MMP-12 enzyme inhibition assay (coumarin-labelled peptide substrate). The class given is biochemical. The conditions noted are these: fluorogenic substrate McaPLGLDpaAR, 37° C., 2 hours. The procedure:
as §1, §2, §3, §4, §5, §6, §7
Compounds of the invention were tested for inhibitory activity against metalloelastase (MMP-12) in an assay using a coumarin-labelled peptide substrate, (7-methoxycoumarin-4-yl)acetyl-Pro-Leu-Gly-Leu-(3-[2,4dinitrophenyl]-L-2,3-diaminopropionyl)-Ala-Arg-NH2 (McaPLGLDpaAR) (Knight et al, 1992, above). The protocol for this assay was as described for the MMP-9 assay above.

In assay [1] the test system is IL-2-induced peritoneal recruitment of lymphocytes. In words: IL-2-induced peritoneal recruitment of lymphocytes. The conditions noted are these: mice, 1 mg/kg po, 15 min prior to IL-2; cells collected 24 h after IL-2. It counts as in vivo, C3H/HEN mice. The procedure:
Administration of IL-2 intraperitoneally causes migration of lymphocytes into the intraperitoneal cavity. This is a model for the cellular migration that occurs during inflammation.
C3H/HEN mice (Elevage Janvier, France) are intraperitoneally injected with IL-2 (Serono Pharmaceutical Research Institute, 20 μg/kg, in saline).
Compounds of the invention are suspended in 0.5% carboxymethylcellulose (CMC)/0.25% tween-20 and are administered by s.c. or p.o. route (10 ml/kg) 15 min prior to administration of IL-2.
Twenty-four hours after administration of IL-2, peritoneal white blood cells are collected by 3 successive lavages of the peritoneal cavity with 5 ml phosphate buffered saline (PBS)-1 mM EDTA (+4° C.). The suspension is centrifuged (1700 g×10 min at +4° C.). The resulting pellet is suspended in 1 ml PBS-1 mM EDTA.
Lymphocytes are identified and counted using a Beckman/Coulter counter.
The animals are divided into 6 groups (6 mice each group):
Group 1: (baseline) receives 0.5% CMC/0.25% tween-20 (vehicle of compound of the invention) and saline (vehicle of IL-2);
Group 2: (control IL-2) receives 0.5% CMC/0.25% tween-20 and injection of IL-2;
Group 3: Experimental group (Compound of the invention Dose 1) receives a compound of the invention and injection of IL-2; […]
Inhibition of lymphocyte recruitment is calculated as follows: […]

metalloelastase (MMP-12), sequence (P39900 106-470): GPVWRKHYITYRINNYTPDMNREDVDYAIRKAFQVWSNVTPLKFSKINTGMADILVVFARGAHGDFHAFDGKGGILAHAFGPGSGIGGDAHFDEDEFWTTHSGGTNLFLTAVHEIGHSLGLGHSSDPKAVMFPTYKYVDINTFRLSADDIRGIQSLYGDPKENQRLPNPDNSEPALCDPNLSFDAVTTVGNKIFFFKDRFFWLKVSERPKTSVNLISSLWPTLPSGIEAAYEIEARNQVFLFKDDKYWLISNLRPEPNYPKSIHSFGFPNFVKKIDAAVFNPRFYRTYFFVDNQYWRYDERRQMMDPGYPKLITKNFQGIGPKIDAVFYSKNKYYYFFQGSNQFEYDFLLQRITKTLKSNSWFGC

On to `O=C(NO)[C@@H](O)CC(=O)N1CCN(c2ccc(F)cc2)CC1` [Example 2, (2S)-4-[4-(4-fluorophenyl)piperazin-1-yl]-N,2-dihydroxy-4-oxobutanamide], for which the IC50 – broadly, the midpoint of a concentration-inhibition curve – against collagenase (MMP-1) is > 5000 nM; against metalloelastase (MMP-12), 58 nM. Moreover, in assay [1], the “% inhibition of IL-2-induced peritoneal recruitment of lymphocytes” value was 51%.
As to `O=C(NO)[C@H](O)CC(=O)N1CCN(c2ccc(F)cc2)CC1` [Example 1, (2R)-4-[4-(4-fluorophenyl)piperazin-1-yl]-N,2-dihydroxy-4-oxo butanamide], the IC50 at collagenase (MMP-1) is > 5000 nM; against metalloelastase (MMP-12), 264 nM.
With `C[C@@H]1CN(c2ccc(-c3ccccc3)cc2)CCN1C(=O)C[C@H](O)C(=O)NO` [Example 4, (2S)-4-[(2R)-4-biphenyl-4-yl-2-methylpiperazin-1-yl]-N,2-dihydroxy-4-oxobutanamide], the IC50 against collagenase (MMP-1) was > 5000 nM; on metalloelastase (MMP-12) it was 5 nM.
For `C[C@@H]1CN(c2ccc(OC(F)(F)F)cc2)CCN1C(=O)C[C@H](O)C(=O)NO` [Example 3, (2S)—N,2-dihydroxy-4-{(2R)-2-methyl-4-[4-(trifluoromethoxy)phenyl]piperazin-1-yl}-4-oxobutanamide] the same measures were > 5000 nM and 5 nM.
